Results reported in patent US20150141411A1, “SUBSTITUTED 3,4-DIHYDRO-2H-PYRIDO[1,2-A]PYRAZINE-1,6-DIONE DERIVATIVES USEFUL FOR THE TREATMENT OF (INTER ALIA) ALZHEIMER'S DISEASE” (Janssen Pharmaceuticals, Inc., priority 2012, published 2015).

These molecules were tested on Aβtotal (assay: In vivo efficacy: brain soluble Aβtotal in non-transgenic rodents (ELISA)). Conditions: Mus musculus, dose 30 mg/kg oral dosing, brain soluble fraction, animals sacrificed after 4 h, untreated animals (Ctrl) set at 100, read-out: Aβtotal (% vs Ctrl)_Mean.
Source text: To determine whether acute administration of an Aβ42 lowering agent would reduce Aβ42 levels in vivo, non-transgenic rodents, e.g. mice or rats were used. Animals treated with the Aβ42 lowering agent were examined and compared to those untreated or treated with vehicle and brain levels of soluble Aβ42 and total Aβ were quantitated by standard techniques, for example, using ELISA. Treatment periods varied from hours (h) to days and were adjusted based on the results of the Aβ42 lowering once a time course of onset of effect could be established.
A typical protocol for measuring Aβ42 lowering in vivo is shown but it is only one of many variations that could be used to optimize the levels of detectable Aβ. For example, Aβ42 lowering compounds were formulated in 20% of Captisol® (a sulfobutyl ether of β-cyclodextrin) in water or 20% hydroxypropyl β cyclodextrin. The Aβ42 lowering agents were administered as a single oral dose or by any acceptable route of administration to overnight fasted animals. After 4 h, the animals were sacrificed and Aβ42 levels were analysed.
Blood was collected by decapitation and exsanguinations in EDTA-treated collection tubes. Blood was centrifuged at 1900 g for 10 minutes (min) at 4° C. and the plasma recovered and flash frozen for later analysis. The brain was removed from the cranium and hindbrain. The cerebellum was removed and the left and right hemisphere were separated. The left hemisphere was stored at −18° C. for quantitative analysis of test compound levels. The right hemisphere was rinsed with phosphate-buffered saline (PBS) buffer and immediately frozen on dry ice and stored at −80° C. until homogenization for biochemical assays.
Mouse brains from non-transgenic animals were resuspended in 8 volumes of 0.4% DEA (diethylamine)/50 mM NaCl containing protease inhibitors (Roche-11873580001 or 04693159001) per gram of tissue, e.g. for 0.158 g brain, add 1.264 ml of 0.4% DEA. All samples were homogenized in the FastPrep-24 system (MP Biomedicals) using lysing matrix D (MPBio #6913-100) at 6 m/s for 20 seconds. Homogenates were centrifuged at 221.300×g for 50 min. The resulting high speed supernatants were then transferred to fresh eppendorf tubes. Nine parts of supernatant were neutralized with 1 part 0.5 M Tris-HCl pH 6.8 and used to quantify Aβtotal and Aβ42.
To quantify the amount of Aβtotal and Aβ42 in the soluble fraction of the brain homogenates, Enzyme-Linked-Immunosorbent-Assays were used. Briefly, the standards (a dilution of synthetic Aβ1-40 and Aβ1-42, Bachem) were prepared in 1.5 ml Eppendorf tube in Ultraculture, with final concentrations ranging from 10000 to 0.3 pg/ml. The samples and standards were co-incubated with HRPO-labelled N-terminal antibody for Aβ42 detection and with the biotinylated mid-domain antibody 4G8 for Aβtotal detection. 50 μl of conjugate/sample or conjugate/standards mixtures were then added to the antibody-coated plate (the capture antibodies selectively recognize the C-terminal end of Aβ42, antibody JRF/cAβ42/26, for Aβ42 detection and the N-terminus of Aβ, antibody JRF/rAβ/2, for Aβtotal detection). The plate was allowed to incubate overnight at 4° C. in order to allow formation of the antibody-amyloid complex. Following this incubation and subsequent wash steps the ELISA for Aβ42 quantification was finished by addition of Quanta Blu fluorogenic peroxidase substrate according to the manufacturer's instructions (Pierce Corp., Rockford, Ill.). A reading was performed after 10 to 15 min (excitation 320 nm/emission 420 nm).
For Aβtotal detection, a Streptavidine-Peroxidase-Conjugate was added, followed 60 min later by an additional wash step and addition of Quanta Blu fluorogenic peroxidase substrate according to the manufacturer's instructions (Pierce Corp., Rockford, Ill.). A reading was performed after 10 to 15 min (excitation 320 nm/emission 420 nm). […]

Row | Structure (SMILES) | response vs control in vivo at 30 mg/kg [%]
1 | Cc1cn(-c2ccc3n(c2=O)CCN(C(C)c2cccc(Cl)c2Cl)C3=O)cn1 (single isomer, unassigned) [10a] | 118
2 | CCC1Cn2c(ccc(-n3cnc(C)c3)c2=O)C(=O)N1Cc1cc(C(F)(F)F)cc(C(F)(F)F)c1.Cl (stereo not drawn) [compound 1] | 89
3 | Cc1cn(-c2ccc3n(c2=O)C[C@@H](C)N(Cc2ccc(Cl)c(Cl)c2)C3=O)cn1 [compound 2] | 100
4 | Cc1cn(-c2ccc3n(c2=O)CC(C)N(Cc2cc(C(F)(F)F)cc(C(F)(F)F)c2)C3=O)cn1 (stereo not drawn) [compound 3] | 98
5 | Cc1cn(-c2ccc3n(c2=O)CCN(Cc2cccc(-c4ccccc4)c2)C3=O)cn1 [compound 5] | 87
6 | Cc1cn(-c2ccc3n(c2=O)CC(C)N(Cc2cc(OCC4CC4)cc(C(F)(F)F)c2)C3=O)cn1.Cl (stereo not drawn) [compound 6] | 102
7 | CCc1cn(-c2ccc3n(c2=O)CC(C)N(Cc2cc(C(F)(F)F)cc(C(F)(F)F)c2)C3=O)cn1.Cl (stereo not drawn) [compound 7] | 94
8 | Cc1cn(-c2ccc3n(c2=O)CCN(Cc2ccccc2C)C3=O)cn1 [compound 22] | 92
9 | Cc1cn(-c2ccc3n(c2=O)C[C@@H](C)N(Cc2cccc(C(C)(C)C)c2)C3=O)cn1 [compound 23] | 122
10 | Cc1cn(-c2ccc3n(c2=O)C[C@@H](C)N(Cc2ccc(C(F)(F)F)c(C(F)(F)F)c2)C3=O)cn1 [compound 46] | 87
11 | Cc1cn(-c2ccc3n(c2=O)C[C@@H](C)N(CCc2cc(C(F)(F)F)cc(C(F)(F)F)c2)C3=O)cn1 [compound 50] | 91
12 | Cc1cc(CN2C(=O)c3ccc(-n4cnc(C)c4)c(=O)n3C[C@H]2C)cc(C(F)(F)F)c1 [compound 59] | 126
13 | Cc1cn(-c2ccc3n(c2=O)C[C@@H](C)N(Cc2ccc(Cl)c(C(F)(F)F)c2)C3=O)cn1 [compound 62] | 98
14 | Cc1cn(-c2ccc3n(c2=O)C[C@@H](C)N(Cc2cc(Cl)cc(C(F)(F)F)c2)C3=O)cn1 [compound 63] | 124
15 | Cc1cn(-c2ccc3n(c2=O)CCN(Cc2ccc(Cl)c(C(F)(F)F)c2)C3=O)cn1 [compound 65] | 114
16 | Cc1cn(-c2ccc3n(c2=O)C[C@@H](C)N(Cc2cc(N4CCC(C)CC4)ccc2Cl)C3=O)cn1 [compound 80] | 119
17 | Cc1cn(-c2ccc3n(c2=O)C[C@@H](C)N(Cc2cc(N4CCCC4)ccc2Cl)C3=O)cn1 [compound 82] | 125
18 | Cc1cn(-c2ccc3n(c2=O)CCN(Cc2ccc(C)c(N4CCCCC4)c2)C3=O)cn1 [compound 99] | 113
